Measured values reported in patent publication US11661434B2, “Phosphate of platinum compound and preparation method therefor” (Beijing Showby Pharmaceutical Co., LTD., priority 2018, dated 2023).

Tests used:
[1] = pH value of compound, salts and lyophilized preparations; type: physicochemical; settings: compound or its salts
Method: The solution was stirred for 10 min, and then stood for adsorption for 20 min, followed by filtering with a 0.22 μm microfiltration membrane, and then was placed into 2 ml vials. Each vial was filled with 1 ml of the solution, which was then lyophilized to obtain the product at the specification of 20 mg/vial. The product was a white loose block, with a pH value of 4.10.
(§1) 100) ml of water for injection was added at a low temperature (2-8° C.) to dissolve the compound, and 2.0 g of activated carbon for medicinal use was added. The solution was stirred for 10 min, and then stood for adsorption for 20 min, followed by filtering with a 0.22 μm microfiltration membrane, and then was placed into 2 ml vials. Each vial was filled with 1 ml of the solution, which was then lyophilized to obtain the product at the specification of 100 mg/vial.
as §1, with “100” for “100)”, “sodium dihydrogen phosphate-disodium hydrogen phosphate buffer (pH of 6.0)” for “water for injection”, “0.5” for “2.0”, “200” for “100”

[2] = hygroscopicity experiments of various salts; type: physicochemical; settings: 25° C. ± 1° C.
[3] = known platinum drugs; cited from earlier work
[4] = relative humidity 44% ± 2%, 1 h
[5] = relative humidity 44% ± 2%, 24 h
[6] = relative humidity 69% ± 2%, 1 h
[7] = relative humidity 69% ± 2%, 24 h

Structure (SMILES) | pH value [1] | Hygroscopicity [2, 4] [%] | Status [2, 4] | Hygroscopicity [2, 5] [%] | Status [2, 5] | Hygroscopicity [2, 6] [%] | Status [2, 6] | Hygroscopicity [2, 7] [%] | Status [2, 7] | solubility [3] [mg/mL]
CCN(CC)CCCCC1C(=O)[O][Pt][O]C1=O.N[C@@H]1CCCC[C@H]1N [Example 1, (4-diethylamino)butylmalonato-(1R,2R)-(−)-1,2-cyclohexanediamine platinum(II)] | greater than 10 | – | – | – | – | – | – | – | – | –
CCN(CC)CCCCC1C(=O)[O][Pt]2([NH][C@@H]3CCCC[C@H]3[NH]2)[O]C1=O.O=C(O)/C=C/C(=O)O (stereo partly shown) [Fumarate salt] | – | 5.87 | Viscous | 10.83 | Semi- | 6.83 | Viscous | 13.90 | Semi- | –
CCN(CC)CCCCC1C(=O)[O][Pt]2([NH][C@@H]3CCCC[C@H]3[NH]2)[O]C1=O.O=C(O)[C@H](O)[C@@H](O)C(=O)O (stereo partly drawn) [L(+) tartrate salt, 2-(4-diethylamino)butylmalonato-(1R,2R)-(−)-1,2-cyclohexanediamine platinum(II) L-(+) tartrate] | – | 4.88 | Viscous | 9.76 | Light gray | 5.78 | Viscous | 12.79 | Light | –
CCN(CC)CCCCC1C(=O)[O][Pt]2([NH][C@@H]3CCCC[C@H]3[NH]2)[O]C1=O.CS(=O)(=O)O (stereo partly drawn) [Mesylate salt, 2-(4-diethylamino)butylmalonato-(1R,2R)-(−)-1,2-cyclohexanediamine platinum(II) mesylate] | – | 4.98 | Viscous | 9.89 | Light gray | 6.37 | Viscous | 13.89 | Light gray | –
CCN(CC)CCCCC1C(=O)[O][Pt]2([NH][C@@H]3CCCC[C@H]3[NH]2)[O]C1=O.Cc1ccc(S(=O)(=O)O)cc1 (stereo partly drawn) [Tosylate salt, 2-(4-diethylamino)butylmalonato-(1R,2R)-(−)-1,2-cyclohexanediamine platinum(II) tosylate] | – | 4.56 | Viscous | 8.78 | Light | 5.30 | Viscous | 9.86 | Light | –
N.N.O=C([O-])C1(C(=O)[O-])CCC1.[Pt+2] [carboplatin] | – | – | – | – | – | – | – | – | – | 17.8
